{"source": "patent US8383658B2", "about": "“Isoxazole based neuronal nicotinic receptor ligands and methods of use” (Abbott Laboratories, priority 2008, dated 2013)", "data": [{"target": "T1, human α4β2 (Homo sapiens, UniProt P17787+P43681)", "T1 construct": "expressed in transfected cells", "T1 sequence (P43681 29-627 limits assumed)": "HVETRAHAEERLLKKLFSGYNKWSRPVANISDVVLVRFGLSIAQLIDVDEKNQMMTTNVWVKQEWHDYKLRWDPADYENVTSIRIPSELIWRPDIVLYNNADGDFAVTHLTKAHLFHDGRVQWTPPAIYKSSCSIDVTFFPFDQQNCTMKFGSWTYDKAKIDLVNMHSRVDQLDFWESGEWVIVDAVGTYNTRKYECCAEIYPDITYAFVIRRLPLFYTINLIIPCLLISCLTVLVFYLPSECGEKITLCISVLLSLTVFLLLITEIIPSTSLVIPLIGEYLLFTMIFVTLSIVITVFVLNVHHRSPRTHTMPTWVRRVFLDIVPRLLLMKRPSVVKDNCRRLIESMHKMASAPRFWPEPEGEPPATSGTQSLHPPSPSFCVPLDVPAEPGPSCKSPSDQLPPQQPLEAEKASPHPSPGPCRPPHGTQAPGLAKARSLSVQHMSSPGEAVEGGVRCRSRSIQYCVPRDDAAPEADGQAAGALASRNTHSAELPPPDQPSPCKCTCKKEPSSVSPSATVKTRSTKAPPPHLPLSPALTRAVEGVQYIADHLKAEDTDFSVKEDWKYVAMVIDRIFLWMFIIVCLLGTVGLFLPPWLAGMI", "T1 sequence (P17787 26-502)": "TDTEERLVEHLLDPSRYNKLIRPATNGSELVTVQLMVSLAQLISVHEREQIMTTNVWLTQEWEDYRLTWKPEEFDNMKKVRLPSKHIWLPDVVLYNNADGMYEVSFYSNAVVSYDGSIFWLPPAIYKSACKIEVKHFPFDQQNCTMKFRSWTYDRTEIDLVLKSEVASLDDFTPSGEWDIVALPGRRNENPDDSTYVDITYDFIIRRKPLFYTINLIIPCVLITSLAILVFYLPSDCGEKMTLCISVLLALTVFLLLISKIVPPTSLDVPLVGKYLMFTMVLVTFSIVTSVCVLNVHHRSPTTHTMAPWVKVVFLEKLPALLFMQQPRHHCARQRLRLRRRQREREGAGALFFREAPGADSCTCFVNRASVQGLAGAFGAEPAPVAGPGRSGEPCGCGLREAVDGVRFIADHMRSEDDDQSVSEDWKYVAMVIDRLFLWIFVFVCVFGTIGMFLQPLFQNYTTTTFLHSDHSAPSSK", "assay": "Calcium flux assay (FLIPR), potentiation of submaximal agonist response in HEK 293 cells expressing α4β2", "format": "cell-based", "details": "α4β2 PAM; fluorescence response to submaximal nicotine considered as 100%", "source_text": "One manner to characterize α4β2 PAM activity is by characterization in clonal cell lines (for example, human embryonic kidney 293 cells) expressing the human neuronal nicotinic acetylcholine receptor subtype α4β2, particularly by use of Fluorescent Image Plate Reader technology. Effects on calcium flux or membrane potential changes can be assessed. Such assays have been reported and further details for carrying out the assays can be obtained in International Publication No. WO 2006/114400. Another method to identify and characterize allosteric modulator activity is by expressing the α4β2 subunits in Xenopus oocytes, and by measuring electrophysiological effects on ligand-evoked current responses as previously described in Curtis, L., et al., Molecular Pharmacology, 61: 127-135, 2002.\nTo determine the effectiveness of representative compounds of this invention as ligands for α4β2 PAM activity, the compounds of the invention can be evaluated according to the Calcium Flux Assay described below.\nHuman embryonic kidney (HEK) 293 cells stably expressing human α4β2 or α3β4 combinations are grown to confluency in 162 cm^2 tissue culture flasks in DMEM media supplemented with 10% FBS and 25 μg/ml zeocin and 200 μg/ml hygromycin B. Cells expressing rat or ferret subunits may also be used. For assessing α3* or α7* selectivity, IMR-32 cells may also be used. IMR-32 neuroblastoma cells (ATCC) are grown to confluency in 162 cm^2 tissue culture flasks in minimum essential media supplemented with 10% FBS and 1 mM sodium pyruvate, 1% non-essential amino acids and 1% antibiotic-antimycotic. For the calcium flux assay, c cells are then dissociated using cell dissociation buffer and 100-150 μl per well of 3.5×10^5 cells/ml cell suspension (˜50,000-100,000 cells/well) was plated into 96-well black plates (poly-D-lysine precoated) with clear bottom and maintained for 24-48 hours in a tissue culture incubator at 37° C. under an atmosphere of 5% CO2: 95% air. Other clonal cell lines or primary cell cultures that express endogenous α4* nicotinic receptors may also be used in this assay. Calcium flux was measured using calcium-3 assay kit (Molecular Devices, Sunnyvale, Calif.) or fluo-4 (Invitrogen). A stock solution of the dye was prepared by dissolving each vial supplied by the vendor in Hank's balanced salt solution buffer (HBSS) or 150 mM NMDG, 20 mM CaCl2 containing 10 mM HEPES. The stock solution was diluted 1:20 using the same buffer before use. The growth media was removed from the cells. The cells were loaded with 100 μl of the dye per well and incubated at room temperature for up to one hour for HEK 293 clonal stable cell lines or 30 minutes-45 minutes at 37° C. for IMR-32 cells. Fluorescence measurements were read simultaneously from all the wells by a Fluorometic Imaging Plate Reader (FLIPR) at an excitation wavelength of 480 nm and an emission wavelength of 520 nm. Baseline fluorescence was measured for the first 6 seconds at which 3× concentrations of modulator/test compounds were added to the cell plate at 50 μl and incubated for five minutes. The fluorescence intensity was captured every second for the first 1 minute followed by every 5 seconds for an additional 4 minutes. This procedure was followed by 50 μl of 4× concentration of agonist and readings were taken for a period of 3-5 minutes as described above.\nThe ability of test compounds to positively modulate the response (i.e., increase the response) induced by a submaximal concentration of agonist (EC20-30%) such as nicotine is measured. Potentiation is measured based on peak fluorescence responses by screening compounds at fixed concentrations or in a concentration-response manner to derive EC50 values. The concentration dependence of changes in fluorescence responses is fitted by nonlinear regression analysis (GraphPad Prism, San Diego, Calif.) to obtain EC50 values. The degree of potentiation and EC50 values of the test compounds are typically calculated. […]", "values": [{"smiles": "c1cncc(-c2cc(-c3cccnc3)on2)c1", "note": "[Example 1, 3,5-Di(pyridin-3-yl)isoxazole]", "Activity (allosteric effects—potentiation of fluorescence responses)": "a (“a” denotes as activity range from 200-400%)"}, {"smiles": "Fc1ccc(-c2cc(-c3cccnc3)no2)cc1F", "note": "[Example 16, 5-(3,4-Difluorophenyl)-3-(pyridin-3-yl)isoxazole]", "Activity (allosteric effects—potentiation of fluorescence responses)": "b (“b” denotes an activity range from 150-200%)"}, {"smiles": "Fc1cc(-c2cc(-c3cccnc3)no2)cc(F)c1F", "note": "[Example 17, 5-(3,4,5-Trifluorophenyl)-3-(pyridin-3-yl)isoxazole]", "Activity (allosteric effects—potentiation of fluorescence responses)": "a (“a” denotes as activity range from 200-400%)"}, {"smiles": "CC(=O)c1cccc(-c2cc(-c3cccnc3)no2)c1", "note": "[Example 25, 1-(3-(3-(Pyridin-3-yl)isoxazol-5-yl)phenyl)ethanone]", "Activity (allosteric effects—potentiation of fluorescence responses)": "b (“b” denotes an activity range from 150-200%)"}, {"smiles": "N#Cc1cccc(-c2cc(-c3cncc(F)c3)no2)c1", "note": "[Example 29, 3-(3-(5-Fluoropyridin-3-yl)isoxazol-5-yl)benzonitrile]", "Activity (allosteric effects—potentiation of fluorescence responses)": "b (“b” denotes an activity range from 150-200%)"}, {"smiles": "N#Cc1cc(-c2cc(-c3cccnc3)no2)ccc1F", "note": "[Example 68, 2-Fluoro-5-(3-(pyridin-3-yl)isoxazol-5-yl)benzonitrile]", "Activity (allosteric effects—potentiation of fluorescence responses)": "a (“a” denotes as activity range from 200-400%)"}]}]}
